What was measured:
[1] = biological target: T1, human A1 adenosine Receptor (Homo sapiens, UniProt P30542); assay: KiA1 (human) receptor binding
T1 sequence (P30542 1-326): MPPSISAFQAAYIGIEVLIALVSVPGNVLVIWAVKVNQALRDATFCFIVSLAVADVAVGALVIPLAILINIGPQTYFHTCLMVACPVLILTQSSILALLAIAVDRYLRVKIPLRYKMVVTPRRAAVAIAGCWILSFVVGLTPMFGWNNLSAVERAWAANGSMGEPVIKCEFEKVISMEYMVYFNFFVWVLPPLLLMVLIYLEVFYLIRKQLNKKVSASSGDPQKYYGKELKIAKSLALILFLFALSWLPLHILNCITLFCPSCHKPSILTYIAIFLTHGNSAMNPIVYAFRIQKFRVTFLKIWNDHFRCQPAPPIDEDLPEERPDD
Protocol: The receptor binding values described hereinafter were determined analogously to Ensinger et al. in “Cloning and functional characterisation of human A1 adenosine Receptor—Biochemical and Biophysical Communications, Vol 187, No. 2, 919-926, 1992”.
The Table which follows contains KiA1 (human) receptor binding values.

[2] = biological target: T2, human A3-adenosine receptor (Homo sapiens, UniProt P0DMS8); assay: KiA3 (human) receptor binding
T2 sequence (P0DMS8 1-318): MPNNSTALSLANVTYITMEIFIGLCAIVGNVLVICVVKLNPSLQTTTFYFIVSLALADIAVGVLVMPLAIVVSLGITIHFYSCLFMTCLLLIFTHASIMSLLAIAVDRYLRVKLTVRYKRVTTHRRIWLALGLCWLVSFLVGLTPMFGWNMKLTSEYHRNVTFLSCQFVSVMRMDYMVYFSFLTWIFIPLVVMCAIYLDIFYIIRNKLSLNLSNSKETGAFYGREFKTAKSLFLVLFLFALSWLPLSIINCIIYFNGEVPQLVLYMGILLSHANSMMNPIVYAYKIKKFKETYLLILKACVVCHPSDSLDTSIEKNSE
Protocol: The A3 receptor binding values given hereinafter were determined analogously to […]. “Molecular cloning and characterization of the human A3-adenosine receptor” (Proc. Natl. Acad. Sci. USA 90, 10365-10369, 1993).

With “4-Ethyl-2-(2-phenylethyl)-7-n-propyl-imidazo[4.5-e]-s-triazolo[1.5-a]pyrimidin-5-one [Example 83]” the Ki [1] was 8.1 nM.
Work on “4-Ethyl-7-methyl-2-(2-phenylethyl)-imidazo[4.5-e]-s-triazolo[1.5-a]pyrimidin-5-one [Example 81]” yielded a Ki [2] of 7.2 nM.

Reference: US6492377B1, “Imidazotriazolopyrimidines with adenosine-antagonistic activity” (Boehringer Ingelheim Pharma KG, priority 1998, dated 2002)
